{"source": "paper PMC8899516", "about": "“Structure-Activity Relationship Studies of 4-((4-(2-fluorophenyl)piperazin-1-yl)methyl)-6-imino-N-(naphthalen-2-yl)-1,3,5-triazin-2-amine (FPMINT) Analogues as Inhibitors of Human Equilibrative Nucleoside Transporters” (Frontiers in Pharmacology, 2022)", "key": {"ENT1 [1]": {"biological_target": "T1, ENT1 (Homo sapiens, UniProt Q99808)", "T1 construct": "expressed in transfected cells", "T1 sequence (Q99808 1-456)": "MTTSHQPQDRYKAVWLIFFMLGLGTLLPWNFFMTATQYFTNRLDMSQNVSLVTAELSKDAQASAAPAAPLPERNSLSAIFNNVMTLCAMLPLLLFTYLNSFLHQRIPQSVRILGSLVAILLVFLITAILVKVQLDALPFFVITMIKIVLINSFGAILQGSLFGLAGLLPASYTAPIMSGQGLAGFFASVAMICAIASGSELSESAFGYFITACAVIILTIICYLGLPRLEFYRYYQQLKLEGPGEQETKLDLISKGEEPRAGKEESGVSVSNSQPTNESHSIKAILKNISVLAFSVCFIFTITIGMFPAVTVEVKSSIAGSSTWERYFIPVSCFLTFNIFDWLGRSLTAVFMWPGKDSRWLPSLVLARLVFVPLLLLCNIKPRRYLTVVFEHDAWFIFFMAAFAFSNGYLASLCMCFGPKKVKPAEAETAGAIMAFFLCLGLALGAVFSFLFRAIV", "experiment": "Kinetic study of [3H]uridine uptake in PK15NTD/ENT1 cells", "format": "cell-based", "experimental": "Nucleoside transporter-deficient porcine kidney fibroblast cells (PK15NTD) stably transfected with cloned human ENT1 or ENT2 ([Ward et al., 2000]) were used as the in vitro models. The cells were cultured in Dulbecco’s Modified Eagle’s Medium (DMEM) supplemented with 10% (v/v) foetal bovine serum, 0.5 mg/ml geneticin, 100 units/ml penicillin, 100 μg/ml streptomycin and 0.25 μg/ml of amphotericin B at 37°C in 5% CO2/95% air.\nConfluent monolayers of PK15NTD/ENT1 and PK15NTD/ENT2 cells in 24-well plates were washed thrice with HEPES-buffered Ringer’s solution containing (mM): 135 NaCl, 10 glucose, 5 KCl, 5 HEPES, 3.33 NaH2PO4, 1.0 CaCl2, 1.0 MgCl2, 0.83 Na2HPO4; pH 7.4. The cells were incubated with different concentrations of FPMINT analogues (from 10 nM to 100 μM) containing [^3H]uridine (2 μCi/ml, 1 μM) for 1 min. Passive uridine uptake was determined by incubating the cells in HEPES-buffered Ringer’s solution containing [^3H]uridine in the presence of 0.5 mM NBMPR. The cells were rapidly washed five times with ice-cold phosphate-buffered saline (PBS). After air-drying, the cells were solubilised by overnight incubation in 500 μl of 5% Triton-X100. Next, 300 μl of the cell lysates were mixed with 2 ml of scintillation liquid. The radioactivity of each sample was quantified by a scintillation counter. The protein content in each well was determined spectrophotometrically using a commercial bicinchoninic acid assay (Pierce Biochemicals, Rockford, IL). Uptake values were expressed as picomoles of [^3H]uridine per milligram of cellular protein per minute.\nAll data were analysed by GraphPad Prism software (San Diego, CA, United States). Data are expressed as mean ± standard error (SE) of three experiments performed in triplicate. The IC50 values were determined from the dose-response curves fitted with a logistic function. For the kinetic study of [^3H]uridine uptake, apparent K m and V max values were determined from the Michaelis-Menten equation, and K i was determined from the X-intercept of linear regression. Analysis of variance and Student’s t-test were performed for multiple and paired variables, respectively. p values of <0.05 were considered to be statistically significant.\nCompound 3c was selected for further investigation. The kinetic study of [^3H]uridine transport was performed by measuring the concentration-dependent uptake of [^3H]uridine. This study could provide clue about the mode of action of compound 3c. The uptake of [^3H]uridine by ENT1 and ENT2 was saturable and conformed to Michaelis-Menten kinetics. Compound 3c decreased the V max of ENT1 but had no effect on K m . […] The slopes of the linear 1/V versus 1/[S] plots increased with the concentration of compound 3c (Figure 4B).\nFIGURE 4 Competitive inhibition of ENT1 and ENT2 by compound 3c. Kinetic study of [^3H]uridine uptake (0.1 μM–1 mM) was measured in (A) PK15NTD/ENT1 and (D) PK15NTD/ENT2 cells in the presence of various concentrations of compound 3c (0, 0.01, 0.1, 1 and 10 µM) (B,E) 1/V versus 1/[S] plots of each curve in (A) and (D), respectively (C,F) The plot of slopes of each line in (B) and (E), respectively, versus the concentration of compound 3c. Data are presented as mean ± SE of three experiments."}, "ENT1 [2]": {"biological_target": "T1, ENT1", "experiment": "Wash-out reversibility of [3H]uridine uptake inhibition in PK15NTD/ENT1 cells", "format": "cell-based", "settings": "50 µM, incubation 1–60 min, washed five times", "experimental": "To determine whether the inhibitory effects of compound 3c were reversible or irreversible, PK15NTD/ENT1 and PK15NTD/ENT2 cells were incubated with 50 µM of compound 3c for different time periods (1–60 min). The cells were then washed five times with buffer. After wash-out for every single time [^3H]uridine uptake was measured. […] The longer the incubation time with compound 3c, the more difficult it was to wash-out the inhibitory effects of compound 3c.\nFIGURE 6 Reversibility of the inhibitory effects of compound 3c on ENT1 and ENT2 (A) PK15NTD/ENT1 and (B) PK15NTD/ENT2 cells were incubated with 50 μM of compound 3c or a vehicle (0.5% DMSO, as a control) for different time (0–60 min) The cells were then washed five times. After wash-out for every single time [^3H]uridine uptake (1 μM, 2 μCi/ml) was measured. Data are presented as mean ± SE of three experiments. ^* p < 0.05 compared with the fifth wash."}}}
{"smiles": "Cc1cccc(Nc2nc(N)nc(CN3CCN(c4ccc(F)cc4)CC3)n2)c1", "note": "[Compound 3c]", "values": [{"measurement": "apparent Vmax of ENT1", "setting": "ENT1 [1]; 0.01 µM compound 3c", "result": "2083 ± 36.80", "unit": "pmol/mg protein/min"}, {"measurement": "apparent Vmax of ENT1", "setting": "ENT1 [1]; 0.1 µM compound 3c", "result": "1867 ± 27.63", "unit": "pmol/mg protein/min"}, {"measurement": "apparent Vmax of ENT1", "setting": "ENT1 [1]; 1 µM compound 3c", "result": "1377 ± 37.81", "unit": "pmol/mg protein/min"}, {"measurement": "apparent Vmax of ENT1", "setting": "ENT1 [1]; 10 µM compound 3c", "result": "732.9 ± 12.02", "unit": "pmol/mg protein/min"}, {"measurement": "mode of inhibition of ENT1-mediated uridine transport", "setting": "ENT1 [1]; decreased Vmax, apparent Km unchanged", "result": "non-competitive inhibitor"}, {"measurement": "Ki", "setting": "ENT1 [1]; x-intercept of slopes versus concentration plot", "result": 2790, "unit": "nM"}, {"measurement": "reversibility of inhibitory effect on ENT1 by washing", "setting": "ENT1 [2]", "result": "only partially reversed by washing"}]}
